Source: the NIST ThermoML archive (doi:10.1021/je200710t)

Tests used:
[1] = for mass density / viscosity: 101.33 kPa, Liquid; for Glass transition temperature: DTA
[2] = refractive index (Na D-line) (dimensionless); details: 101.33 kPa, Liquid, Standard Abbe refractometry

N#CCCn1cc[n+](Cc2ccccc2)c1.[Cl-] [1-(2-cyanoethyl)-3-(phenylmethyl)-1H-imidazolium chloride]
[1]
Details | mass density [kg/m3] | viscosity [mPa·s]
298.15 K | 1202.67 | –
303.15 K | 1200.28 | –
308.15 K | 1197.33 | –
313.15 K | 1194.37 | –
318.15 K | 1191.42 | –
323.15 K | 1188.5 | 95152
328.15 K | 1185.59 | 42665
333.15 K | 1182.69 | 20463
338.15 K | 1179.8 | 10434
343.15 K | 1176.88 | 5635
348.15 K | 1174.01 | 3190
353.15 K | 1171.16 | 1958

Details | Glass transition temperature [°C]
[1] | 16.21

CCCC[n+]1ccn(CCC#N)c1.[Cl-] [3-butyl-1-(2-cyanoethyl)-1H-imidazol-3-ium chloride]
Details | mass density, [1] [kg/m3] | refractive index, [2] | viscosity, [1] [mPa·s]
293.15 K | 1132.55 | 1.52575 | 4707
298.15 K | 1129.35 | 1.5243 | 2637
303.15 K | 1126.15 | 1.52287 | 1612
308.15 K | 1122.93 | 1.52139 | 1020
313.15 K | 1119.66 | 1.51992 | 668
318.15 K | 1116.49 | 1.51846 | 451
323.15 K | 1113.34 | 1.51707 | 314
328.15 K | 1110.18 | 1.5156 | 224
333.15 K | 1107.03 | 1.51418 | 164
338.15 K | 1103.87 | – | 123
343.15 K | 1100.72 | – | 94
348.15 K | 1097.57 | – | 73
353.15 K | 1094.44 | – | 58

Details | Glass transition temperature [°C]
[1] | -5.23

N#CCCn1cc[n+](CCO)c1.[Cl-] [1-(2-cyanoethyl)-3-(2-hydroxyethyl)-1H-imidazolium chloride]
Details | mass density, [1] [kg/m3] | refractive index, [2] | viscosity, [1] [mPa·s]
293.15 K | 1257.9 | 1.54996 | –
298.15 K | 1255.05 | 1.54847 | –
303.15 K | 1252.2 | 1.54699 | 62813
308.15 K | 1249.38 | 1.54554 | 33772
313.15 K | 1246.58 | 1.54412 | 19046
318.15 K | 1243.81 | 1.54277 | 11119
323.15 K | 1241.05 | 1.54133 | 6721
328.15 K | 1238.32 | 1.53985 | 4213
333.15 K | 1235.59 | 1.53847 | 2708
338.15 K | 1232.86 | – | 1817
343.15 K | 1230.13 | – | 1245
348.15 K | 1227.41 | – | 873
353.15 K | 1224.57 | – | 632

Details | Glass transition temperature [°C]
[1] | 14.50

C=CC[n+]1ccn(CCC#N)c1.[Cl-] [3-allyl-1-(2-cyanoethyl)-1H-imidazolium chloride]
Details | mass density, [1] [kg/m3] | refractive index, [2] | viscosity, [1] [mPa·s]
293.15 K | 1173.79 | 1.54731 | –
298.15 K | 1170.79 | 1.54603 | 17544
303.15 K | 1167.79 | 1.54478 | 10294
308.15 K | 1164.8 | 1.54339 | 5761
313.15 K | 1161.84 | 1.54208 | 3316
318.15 K | 1158.88 | 1.54072 | 2046
323.15 K | 1155.93 | 1.53945 | 1314
328.15 K | 1152.91 | 1.53813 | 873
333.15 K | 1150.01 | 1.53682 | 599
338.15 K | 1147.11 | – | 423
343.15 K | 1144.22 | – | 306
348.15 K | 1141.32 | – | 226
353.15 K | 1138.42 | – | 171

Details | Glass transition temperature [°C]
[1] | -1.48
